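48-hour exposure; five concentrations; linearly interpolated endpoints. GI50 = concentration required for 50% inhibition of growth. TGI: total growth inhibition.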
Key:
Assay in all cases: NCI anticancer screen, dose series, 48 h
SK-MEL-2 melanoma = tested on: SK-MEL-2 melanoma
T-47D breast = tested on: T-47D breast
HCT-15 colon = tested on: HCT-15 colon
HCT-116 colon = tested on: HCT-116 colon
KM12 colon = tested on: KM12 colon
UACC-257 melanoma = tested on: UACC-257 melanoma
SNB-75 CNS = tested on: SNB-75 CNS
OVCAR-8 ovarian = tested on: OVCAR-8 ovarian
HCC-2998 colon = tested on: HCC-2998 colon
COLO 205 colon = tested on: COLO 205 colon
OVCAR-4 ovarian = tested on: OVCAR-4 ovarian
M14 melanoma = tested on: M14 melanoma
TK-10 renal = tested on: TK-10 renal
CAKI-1 renal = tested on: CAKI-1 renal
SW-620 colon = tested on: SW-620 colon
HT29 colon = tested on: HT29 colon
NCI-H460 lung = tested on: NCI-H460 lung
RPMI-8226 leukemia = tested on: RPMI-8226 leukemia
HS 578T breast = tested on: HS 578T breast
MOLT-4 leukemia = tested on: MOLT-4 leukemia
OVCAR-3 ovarian = tested on: OVCAR-3 ovarian
IGROV1 ovarian = tested on: IGROV1 ovarian
BT-549 breast = tested on: BT-549 breast
MALME-3M melanoma = tested on: MALME-3M melanoma
OVCAR-5 ovarian = tested on: OVCAR-5 ovarian
MDA-MB-231 breast = tested on: MDA-MB-231 breast
NCI-H522 lung = tested on: NCI-H522 lung
CCRF-CEM leukemia = tested on: CCRF-CEM leukemia
786-0 renal = tested on: 786-0 renal

## COc1ccc2c(c1)CC[C@@H]1[C@@H]2CC[C@]2(C)C(c3ccsc3)=C(/C=C/C(=O)c3ccccc3)C[C@@H]12
SK-MEL-2 melanoma
  GI50: > 100 µM
  TGI: > 100 µM
T-47D breast
  GI50: > 100 µM
  TGI: > 100 µM
HCT-15 colon
  GI50: > 100 µM
  TGI: > 100 µM
HCT-116 colon
  GI50: > 100 µM
  TGI: > 100 µM
KM12 colon
  GI50: > 100 µM
  TGI: > 100 µM
UACC-257 melanoma
  GI50: > 100 µM
  TGI: > 100 µM
SNB-75 CNS
  GI50: > 100 µM
  TGI: > 100 µM
OVCAR-8 ovarian
  GI50: > 100 µM
  TGI: > 100 µM
HCC-2998 colon
  GI50: 67.4 µM
  TGI: > 100 µM
COLO 205 colon
  GI50: > 100 µM
  TGI: > 100 µM
OVCAR-4 ovarian
  GI50: > 100 µM
  TGI: > 100 µM
M14 melanoma
  GI50: > 100 µM
  TGI: > 100 µM
TK-10 renal
  GI50: > 100 µM
  TGI: > 100 µM
CAKI-1 renal
  GI50: > 100 µM
  TGI: > 100 µM
SW-620 colon
  GI50: > 100 µM
  TGI: > 100 µM
HT29 colon
  GI50: > 100 µM
  TGI: > 100 µM
NCI-H460 lung
  GI50: > 100 µM
  TGI: > 100 µM
RPMI-8226 leukemia
  GI50: 50.3 µM
  TGI: > 100 µM
HS 578T breast
  GI50: > 100 µM
  TGI: > 100 µM
MOLT-4 leukemia
  GI50: 2.67 µM
  TGI: > 100 µM
OVCAR-3 ovarian
  GI50: > 100 µM
  TGI: > 100 µM
IGROV1 ovarian
  GI50: > 100 µM
  TGI: > 100 µM
BT-549 breast
  GI50: > 100 µM
  TGI: > 100 µM
MALME-3M melanoma
  GI50: > 100 µM
  TGI: > 100 µM
OVCAR-5 ovarian
  GI50: > 100 µM
  TGI: > 100 µM
MDA-MB-231 breast
  GI50: > 100 µM
  TGI: > 100 µM
NCI-H522 lung
  GI50: > 100 µM
  TGI: > 100 µM
CCRF-CEM leukemia
  GI50: > 100 µM
  TGI: > 100 µM
786-0 renal
  GI50: > 100 µM
